Laboratory results reported in the Kinase Knowledgebase extract (Sharma et al. 2016).

Biological target: PIK3CG (human) (UniProt P48736)
Experiment: Inhibition of PIK3CG Kinase Assay

Sequence of PIK3CG (human) (P48736 whole entry, looked up): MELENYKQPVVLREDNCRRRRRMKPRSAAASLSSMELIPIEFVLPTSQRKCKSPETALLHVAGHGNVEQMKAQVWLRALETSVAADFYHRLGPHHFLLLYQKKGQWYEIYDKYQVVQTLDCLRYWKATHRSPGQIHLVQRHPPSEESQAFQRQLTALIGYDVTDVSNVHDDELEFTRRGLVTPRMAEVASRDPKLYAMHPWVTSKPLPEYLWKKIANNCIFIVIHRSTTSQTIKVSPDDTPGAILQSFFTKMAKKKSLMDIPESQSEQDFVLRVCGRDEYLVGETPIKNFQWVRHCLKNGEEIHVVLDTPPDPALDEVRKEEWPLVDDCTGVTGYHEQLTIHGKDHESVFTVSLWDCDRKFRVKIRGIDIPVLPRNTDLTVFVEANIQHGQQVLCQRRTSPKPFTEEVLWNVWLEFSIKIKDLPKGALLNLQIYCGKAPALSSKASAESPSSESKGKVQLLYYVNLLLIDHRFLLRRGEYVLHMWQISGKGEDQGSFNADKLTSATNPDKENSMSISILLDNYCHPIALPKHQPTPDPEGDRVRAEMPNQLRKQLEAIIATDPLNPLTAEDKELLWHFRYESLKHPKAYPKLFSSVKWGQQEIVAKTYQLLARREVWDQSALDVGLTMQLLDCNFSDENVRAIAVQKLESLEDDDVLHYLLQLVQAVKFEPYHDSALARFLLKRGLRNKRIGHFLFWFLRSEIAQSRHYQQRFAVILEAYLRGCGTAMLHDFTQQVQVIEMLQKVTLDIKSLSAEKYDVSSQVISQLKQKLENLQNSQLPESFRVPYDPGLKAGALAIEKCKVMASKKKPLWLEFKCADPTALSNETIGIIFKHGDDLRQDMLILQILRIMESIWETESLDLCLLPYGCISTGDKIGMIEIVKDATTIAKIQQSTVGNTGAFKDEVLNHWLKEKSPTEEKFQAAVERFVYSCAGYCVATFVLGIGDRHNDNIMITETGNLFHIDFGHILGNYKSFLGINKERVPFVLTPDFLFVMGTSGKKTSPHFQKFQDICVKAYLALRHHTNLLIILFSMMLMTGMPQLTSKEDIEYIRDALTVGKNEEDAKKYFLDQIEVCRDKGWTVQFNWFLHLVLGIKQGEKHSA

Row | IC50 [nM] | Structure (SMILES)
1 | 500 to 2000 | O=C(NC1=Nc2ccccc2C2=NCCN12)c1ccc(Cl)nc1
2 | 500 to 2000 | O=C(NC1=Nc2ccccc2C2=NCCN12)c1ccccn1
3 | 100 to 500 | O/C(=C\C1=Nc2cc(CN3CCOCC3)ccc2C2=NCCN12)c1cccnc1
4 | 100 to 500 | Cc1nc2ccccn2c1C(=O)NC1=Nc2ccccc2C2=NCCN12
5 | ≤ 100 | O=C(NC1=Nc2ccccc2C2=NCCN12)c1cncc(O)c1
6 | ≤ 100 | COc1c(OCC(=O)N(C)C)ccc2c1N=C(/C=C(\O)c1cccnc1)N1CCN=C21
7 | 100 to 500 | O/C(=C\C1=Nc2cc(N3CCN(Cc4ccccc4)CC3)ccc2C2=NCCN12)c1cccnc1
8 | > 2000 | Cc1cc(C(=O)NC2=Nc3ccccc3C3=NCCN23)cc(C)c1[N+](=O)[O-]
9 | ≤ 100 | COc1cc2c(c(OC)c1C)N=C(NC(=O)c1cccnc1C)N1CCN=C21
10 | 100 to 500 | CCn1nc(C)cc1C(=O)NC1=Nc2ccccc2C2=NCCN12
11 | 100 to 500 | Cc1ccc2c(c1)N=C(NC(=O)c1cccs1)N1CCN=C21
12 | 500 to 2000 | O=C(NC1=Nc2ccccc2C2=NCCN12)c1cnccn1
13 | 100 to 500 | CN(C)C=Nc1cncc(C(=O)NC2=Nc3ccccc3C3=NCCN23)c1
14 | 100 to 500 | O/C(=C\C1=Nc2ccc(Cl)cc2C2=NCCN12)c1cccnc1
15 | 100 to 500 | COc1cc2c(c(OC)c1C)N=C(NC(=O)c1ccc3[nH]cnc3c1)N1CCN=C21
16 | 100 to 500 | Cc1cccc2c1N=C(NC(=O)c1cccnc1)N1CCN=C21
17 | ≤ 100 | O=C(NC1=Nc2c(F)cccc2C2=NCCN12)c1ccc2[nH]cnc2c1
18 | > 2000 | CCOC(=O)c1cc(C(=O)NC2=Nc3ccccc3C3=NCCN23)cc(C(=O)OCC)c1
19 | ≤ 100 | COc1c(OCCO)ccc2c1N=C(/C=C(\O)c1cccnc1)N1CCN=C21
20 | ≤ 100 | COc1ccc2c(c1OCCN1CCOCC1)N=C(/C=C(\O)c1cccnc1)N1CCN=C21
21 | 100 to 500 | Cc1cc(Br)c2c(c1)C1=NCCN1C(/C=C(\O)c1ccc3[nH]cnc3c1)=N2
22 | > 2000 | NS(=O)(=O)c1ccc(C(=O)NC2=Nc3ccccc3C3=NCCN23)c(Cl)c1
23 | ≤ 100 | Cc1ccc2c(c1)N=C(NC(=O)c1cccnc1)N1CCN=C21

Row | IC50 [nM] | Structure (SMILES)
24 | > 2000 | CN(C=O)c1ccc(C(=O)NC2=Nc3ccccc3C3=NCCN23)cc1
25 | 100 to 500 | O=C(NC1=Nc2cc(OCCO)ccc2C2=NCCN12)c1cccnc1
26 | ≤ 100 | COc1cccc2c1N=C(NC(=O)c1ccc3[nH]cnc3c1)N1CCN=C21
27 | ≤ 100 | COc1cc(OC)c2c(c1)C1=NCCN1C(NC(=O)c1ccc3[nH]cnc3c1)=N2
28 | 100 to 500 | O/C(=C\C1=Nc2cc(Cl)ccc2C2=NCCN12)c1cccnc1
29 | ≤ 100 | O=C(NC1=Nc2c(cccc2C(F)(F)F)C2=NCCN12)c1ccc2[nH]cnc2c1
30 | ≤ 100 | COc1cccc2c1N=C(/C=C(\O)c1cccnc1)N1CCN=C21
31 | > 2000 | O=C(NC1=Nc2ccccc2C2=NCCN12)c1ccc([N+](=O)[O-])s1
32 | 500 to 2000 | O=C(NC1=Nc2ccccc2C2=NCCN12)c1ccco1
33 | 500 to 2000 | Cc1cnc(C(=O)NC2=Nc3ccccc3C3=NCCN23)cn1
34 | > 2000 | O=C(NC1=Nc2ccccc2C2=NCCN12)c1ccc(-n2ccnc2)cc1
35 | ≤ 100 | O=C(NC1=Nc2cc(Cl)ccc2C2=NCCN12)c1ccc2[nH]cnc2c1
36 | > 2000 | O=C(NC1=Nc2ccccc2C2=NCCN12)c1ccc(-n2cccn2)cc1
37 | ≤ 100 | COc1cccc2c1N=C(NC(=O)c1cc3cccnc3nc1C)N1CCN=C21
38 | 500 to 2000 | O/C(=C\C1=Nc2ccccc2C2=NCCN12)c1ccccn1
39 | ≤ 100 | CC(=O)Nc1ccc(C(=O)NC2=Nc3ccccc3C3=NCCN23)cn1
40 | > 2000 | CN(C)c1cccc(C(=O)NC2=Nc3ccccc3C3=NCCN23)c1
41 | 100 to 500 | CC(=O)Nc1ccc(/C(O)=C/C2=Nc3c(CN4CCOCC4)cccc3C3=NCCN23)cn1
42 | 100 to 500 | COc1cc(OC)c2c(c1)C1=NCCN1C(NC(=O)c1ccc(NC(C)=O)nc1)=N2
43 | 100 to 500 | O=C(NC1=Nc2ccc(Br)cc2C2=NCCN12)c1cccnc1
44 | ≤ 100 | O/C(=C\C1=Nc2cc(N3CCOCC3)ccc2C2=NCCN12)c1cncc(O)c1
45 | > 2000 | COc1cc(C(=O)NC2=Nc3ccccc3C3=NCCN23)cc(OC)c1C
46 | > 2000 | O=C(NC1=Nc2ccccc2C2=NCCN12)c1ccc(-n2cccc2)cc1

Row | IC50 [nM] | Structure (SMILES)
47 | ≤ 100 | COc1cc2c(c(OC)c1C)N=C(/C=C(\O)c1cccnc1)N1CCN=C21
48 | 100 to 500 | Cc1nc2ncccc2cc1C(=O)NC1=Nc2ccccc2C2=NCCN12
49 | 100 to 500 | O=C(NC1=Nc2ccccc2C2=NCCN12)c1sccc1Cl
50 | ≤ 100 | COc1cc2c(c(OC)c1C)N=C(/C=C(\O)c1ccc(NC(C)=O)nc1)N1CCN=C21
51 | ≤ 100 | COc1cc2c(cc1OC)C1=NCCN1C(NC(=O)c1cncc(O)c1)=N2
52 | ≤ 100 | COc1c(C)ccc2c1N=C(/C=C(\O)c1ccc(NC(C)=O)nc1)N1CCN=C21
53 | 100 to 500 | Cc1nc(N)ccc1C(=O)NC1=Nc2ccccc2C2=NCCN12
54 | ≤ 100 | Cc1cccc2c1N=C(NC(=O)c1ccc3[nH]cnc3c1)N1CCN=C21
55 | 100 to 500 | COc1cc2c(c(OC)c1C)N=C(/C=C(\O)c1ccc3[nH]cnc3c1)N1CCN=C21
56 | 500 to 2000 | Cn1cccc1C(=O)NC1=Nc2ccccc2C2=NCCN12
57 | 500 to 2000 | O=C(NC1=Nc2ccc(F)cc2C2=NCCN12)c1cccs1
58 | 100 to 500 | O/C(=C\C1=Nc2c(Br)cccc2C2=NCCN12)c1cccnc1
59 | 100 to 500 | COc1ccc2c(c1)N=C(NC(=O)c1cccnc1)N1CCN=C21
60 | 100 to 500 | O/C(=C\C1=Nc2ccccc2C2=NCCN12)c1ccco1
61 | 100 to 500 | O=C(NC1=Nc2cc(N3CCCCC3)ccc2C2=NCCN12)c1cccnc1
62 | ≤ 100 | O=C(NC1=Nc2ccccc2C2=NCCN12)c1cnc2[nH]cnc2c1
63 | ≤ 100 | CC(=O)Nc1ccc(/C(O)=C/C2=Nc3c(C)cccc3C3=NCCN23)cn1
64 | 100 to 500 | CC(=O)Nc1ccc(/C(O)=C/C2=Nc3cc(CN4CCOCC4)ccc3C3=NCCN23)cn1
65 | 100 to 500 | O=C(NC1=Nc2cc(Cl)ccc2C2=NCCN12)c1cccnc1
66 | 100 to 500 | O/C(=C\C1=Nc2ccccc2C2=NCCN12)c1cccnc1
67 | ≤ 100 | COc1cc2c(cc1OC)C1=NCCN1C(/C=C(\O)c1sc(C)nc1C)=N2
68 | > 2000 | O=C(NC1=Nc2ccccc2C2=NCCN12)c1ccc(Cl)cc1
69 | ≤ 100 | Nc1ccc(C(=O)NC2=Nc3ccccc3C3=NCCN23)cn1

Row | IC50 [nM] | Structure (SMILES)
70 | > 2000 | CS(=O)(=O)c1ccc(C(=O)NC2=Nc3ccccc3C3=NCCN23)cc1
71 | > 2000 | O=C(NC1=Nc2ccccc2C2=NCCN12)c1csc([N+](=O)[O-])c1
72 | ≤ 100 | COc1c(OCc2nn[nH]n2)ccc2c1N=C(/C=C(\O)c1cccnc1)N1CCN=C21
73 | 100 to 500 | COc1cc2c(cc1OC)C1=NCCN1C(/C=C(\O)c1cccs1)=N2
74 | 100 to 500 | O=C(NC1=Nc2ccccc2C2=NCCN12)c1ccsc1
75 | ≤ 100 | COc1cc2c(cc1OC)C1=NCCN1C(/C=C(\O)c1ccc3[nH]cnc3c1)=N2
76 | ≤ 100 | Cc1ccc(C(=O)NC2=Nc3ccccc3C3=NCCN23)cn1
77 | 100 to 500 | O/C(=C\C1=Nc2c(OCC3CC3)cccc2C2=NCCN12)c1cccnc1
78 | ≤ 100 | O=C(NC1=Nc2ccc(Cl)cc2C2=NCCN12)c1cccnc1
79 | 100 to 500 | Cc1ccc2c(c1)N=C(/C=C(\O)c1cccnc1)N1CCN=C21
80 | 100 to 500 | COc1cc2c(cc1OC)C1=NCCN1C(NC(=O)c1ccc(NC(C)=O)nc1)=N2
81 | > 2000 | O=C(NC1=Nc2ccccc2C2=NCCN12)c1cccc([N+](=O)[O-])c1
82 | 100 to 500 | Cc1ccc2c(c1OCCN1CCOCC1)N=C(/C=C(\O)c1cccnc1)N1CCN=C21
83 | ≤ 100 | COc1ccc2c(c1)N=C(NC(=O)c1ccc3[nH]cnc3c1)N1CCN=C21
84 | > 2000 | O/C(=C\C1=Nc2ccccc2C2=NCCN12)c1csc2ccccc12
85 | 100 to 500 | O=C(O)CCc1ccc2c(n1)N=C(/C=C(\O)c1cccnc1)N1CCN=C21
86 | 100 to 500 | O=C(NC1=Nc2cc(OCCOCCO)ccc2C2=NCCN12)c1cccnc1
87 | 100 to 500 | C=Cc1ccc2c(c1)C1=NCCN1C(NC(=O)c1cccnc1)=N2
88 | ≤ 100 | O/C(=C\C1=Nc2ccccc2C2=NCCN12)c1cccs1
89 | 100 to 500 | O/C(=C\C1=Nc2cc(N3CCOCC3)ccc2C2=NCCN12)c1cccnc1
90 | ≤ 100 | COc1ccc2c(c1OC)N=C(/C=C(\O)c1cccnc1)N1CCN=C21
91 | ≤ 100 | Cc1ccc(C(=O)NC2=Nc3cc(N4CCOCC4)ccc3C3=NCCN23)cn1
92 | ≤ 100 | COc1ccc2c(c1OC)N=C(NC(=O)c1cnc3[nH]cnc3c1)N1CCN=C21

Row | IC50 [nM] | Structure (SMILES)
93 | 500 to 2000 | O=C(NC1=Nc2ccccc2C2=NCCN12)c1ccncc1
94 | 100 to 500 | O=C(NC1=Nc2cc(OCC(=O)N3CCOCC3)ccc2C2=NCCN12)c1cccnc1
95 | > 2000 | O=C(NC1=Nc2ccccc2C2=NCCN12)c1csc(-c2cccnc2)n1
96 | ≤ 100 | COc1ccc2c(c1Br)N=C(NC(=O)c1cccnc1)N1CCN=C21
97 | 500 to 2000 | Cc1ccc(C(=O)NC2=Nc3ccccc3C3=NCCN23)c(Cl)n1
98 | 100 to 500 | O/C(=C\C1=Nc2c(CN3CCOCC3)cccc2C2=NCCN12)c1cccnc1
99 | 100 to 500 | CNc1ccc(C(=O)NC2=Nc3ccccc3C3=NCCN23)cn1
100 | > 2000 | CSc1ccc(C(=O)NC2=Nc3ccccc3C3=NCCN23)cc1
101 | 100 to 500 | CC(=O)Nc1ccc(C(=O)NC2=Nc3cc(N4CCOCC4)ccc3C3=NCCN23)cc1
102 | 100 to 500 | O/C(=C\C1=Nc2ccccc2C2=NCCN12)c1ccno1
103 | 100 to 500 | Cc1cccc2c1N=C(/C=C(\O)c1cccnc1)N1CCN=C21
104 | 100 to 500 | Cc1ccc(/C(O)=C/C2=Nc3ccccc3C3=NCCN23)cn1
105 | ≤ 100 | COc1ccc2c(c1OC)N=C(NC(=O)c1ccc3[nH]cnc3c1)N1CCN=C21
106 | ≤ 100 | COc1ccc2c(c1)N=C(NC(=O)c1ccc(N)nc1)N1CCN=C21
107 | 100 to 500 | Cc1ccc2c(c1)C1=NCCN1C(/C=C(\O)c1cccnc1)=N2
108 | ≤ 100 | COc1c(OCC(=O)N2CCOCC2)ccc2c1N=C(/C=C(\O)c1cccnc1)N1CCN=C21
109 | ≤ 100 | COc1cccc2c1N=C(NC(=O)c1cccnc1Cl)N1CCN=C21
110 | > 2000 | COc1c(C)cc(C(=O)NC2=Nc3ccccc3C3=NCCN23)cc1C
111 | ≤ 100 | CC(=O)NC1CCN(c2ccc3c(c2)N=C(/C=C(\O)c2cccnc2)N2CCN=C32)C1 (stereo unspecified)
